The source of these data is ChEMBL document CHEMBL1146798, “QSAR of adenosine receptor antagonists. Part 3: Exploring physicochemical requirements for selective binding of 1,2,4-triazolo[5,1-i]purine derivatives with human adenosine A3 receptor subtype” (Bioorg Med Chem Lett, 2004).

SMILES strings stand for the structures.

By logP is commonly meant the decadic logarithm of the partition coefficient of the neutral form, usually between octanol and water. High values mean a more lipophilic compound, low ones a more hydrophilic compound.

A short description of the data set: Partition coefficient (logP). It counts as physicochemical. The settings on record: octanol/water.

As to `CCCCc1nc2nc[nH]c2c2nc(-c3ccc(Cl)cc3)nn12`, the logP came out at 4.78.
The value for `CCCCCc1nc2nc[nH]c2c2nc(-c3ccccc3)nn12` was 4.64; that for `CCCCc1nc2[nH]cnc2c2nc(-c3ccccc3)nn12` was 4.23.
The value for `CCCCc1nc2[nH]cnc2c2nc(-c3ccc(C(C)(C)C)cc3)nn12` was 5.93; that for `CCCCc1nc2nc[nH]c2c2nc(-c3cccc(Cl)c3)nn12` was 4.78.
As to `CCCCc1nc2[nH]cnc2c2nc(-c3cccc(C)c3)nn12`, the logP came to 4.71.
Then `CCCCc1nc2nc[nH]c2c2nc(-c3ccc(OCC)cc3)nn12`, with 4.44; and `CCCCc1nc2[nH]cnc2c2nc(Cc3ccccc3)nn12`, with 4.33; and `CCCCc1nc2nc[nH]c2c2nc(-c3ccc(SC)cc3)nn12`, with 4.66.
The value for `CCCCc1nc2nc[nH]c2c2nc(-c3ccc(Br)cc3)nn12` was 5.05; that for `CCCCc1nc2[nH]cnc2c2nc(-c3cccc(OC)c3)nn12` was 4.1.
Turning to `CCCCc1nc2[nH]cnc2c2nc(-c3cccnc3)nn12`, the log partition coefficient (logP) is 2.89.
With `CCCCCCc1nc2nc[nH]c2c2nc(-c3ccccc3)nn12`, the logP came out at 5.06.
Then `CCCCc1nc2[nH]cnc2c2nc(C)nn12`, with 2.57.
The value for `CCCCc1nc2nc[nH]c2c2nc(-c3ccc(-c4ccccc4)cc3)nn12` was 5.9.
Take `CCCCc1nc2nc[nH]c2c2nc(-c3ccc(O)cc3)nn12`: the logP amounted to 3.84.
`CCCCc1nc2[nH]cnc2c2nc(-c3ccc(N(C)C)cc3)nn12` showed a log partition coefficient (logP) of 4.51.
In turn, `CCCc1nc2nc[nH]c2c2nc(-c3ccccc3)nn12` gave a logP of 3.81.
The value for `CCCCc1nc2[nH]cnc2c2nc(-c3ccc(C(F)(F)F)cc3)nn12` was 5.15.
As for `CCCCc1nc2nc[nH]c2c2nc(-c3ccccc3Cl)nn12`, the logP amounted to 4.78.
The value for `CCCCc1nc2[nH]cnc2c2nc(-c3ccco3)nn12` was 2.84; that for `CCc1nc2[nH]cnc2c2nc(-c3ccccc3)nn12` was 3.39.
`c1ccc(-c2nc3c4nc[nH]c4nc(-c4ccccc4)n3n2)cc1` had a log partition coefficient (logP) of 4.2.
`CCCCc1nc2[nH]cnc2c2nc(-c3ccc(OC)cc3)nn12` had a lipophilicity (logP) of 4.1.
Then `CCCCc1nc2[nH]cnc2c2nc(-c3ccc(C)cc3)nn12`, with 4.71.
Then `CCCCc1nc2nc[nH]c2c2nc(-c3ccc(F)cc3)nn12`, with 4.38.
The molecule `CCCCc1nc2[nH]cnc2c2nc(-c3cc(OC)c(OC)c(OC)c3)nn12` returned a log partition coefficient (logP) of 3.85.
Then `CCCCc1nc2[nH]cnc2c2nc(-c3ccc(OCCC)cc3)nn12`, with 4.92; and `Cc1nc2[nH]cnc2c2nc(-c3ccccc3)nn12`, with 2.82.
